Measured values taken from patent publication US12377104B1, “Methods for treating a fatty liver disease” (Madrigal Pharmaceuticals, Inc., priority 2024, dated 2025).

System: adults with biopsy-confirmed NASH
Experiment: MAESTRO-NASH: liver enzymes, imaging and biomarkers (MRI-PDFF, CAP, VCTE, MRE, liver and spleen volume, ELF)
Type: in vivo, human
[1] = 100 mg, wk 48, baseline ALT ≥30 U per liter
[2] = 100 mg, F1B, responder analysis
[3] = 100 mg, week 52, baseline ELF score ≥9.8
[4] = 100 mg, week 52, baseline PIIINP ≥9 ng/mL
[5] = 100 mg, week 52, baseline TIMP-I ≥240 ng/ml
[6] = 100 mg, week 52, baseline hyaluronic acid ≥50 ng/ml

Compound: CC(C)c1cc(Oc2c(Cl)cc(-n3nc(C#N)c(=O)[nH]c3=O)cc2Cl)n[nH]c1=O [Resmetirom, 2-(3,5-dichloro-4-((5-isopropyl-6-oxo-1,6-dihydropyridazin-3-yl)oxy)phenyl)-3,5-dioxo-2,3,4,5-tetrahydro-1,2,4-triazine-6-carbonitrile]
- Hyaluronic acid, LS mean CFB difference from PBO (80 mg, week 52, baseline hyaluronic acid ≥50 ng/ml): 0.58 µg/L
- Alanine aminotransferase level, difference from placebo (100 mg, wk 48): −26.3 percentage points
- Aspartate aminotransferase level, difference from placebo (100 mg, wk 48): −25.4 percentage points
- γ-Glutamyltransferase level, difference from placebo (100 mg, wk 48): −35.2 percentage points
- Alanine aminotransferase level, least-squares mean percent change from baseline [1]: −33.2 ± 3.9%
- Aspartate aminotransferase level, least-squares mean percent change from baseline [1]: −28.3 ± 3.9%
- γ-Glutamyltransferase level, least-squares mean percent change from baseline [1]: −31.9 ± 6.3%
- MRI-PDFF, difference from placebo (100 mg, wk 52): −37.9 percentage points
- MRI-PDFF, least-squares mean percent change from baseline (100 mg, wk 52): −46.6 ± 2.8%
- MRE ≥19% increase from BL, % of patients [2]: (20.0) %
- MRE ≥19% increase from BL, no. of patients [2]: 1
- MRE ≥19% reduction from BL, no. of patients [2]: 0
- VCTE/LSM improving >25%, % of patients [2]: (70.0) %
- VCTE/LSM improving >25%, no. of patients [2]: 7
- VCTE/LSM improving ≥30%, % of patients [2]: (60.0) %
- VCTE/LSM improving ≥30%, no. of patients [2]: 6
- VCTE/LSM worsening ≥25%, no. of patients [2]: 0
- VCTE/LSM worsening ≥30%, no. of patients [2]: 0
- FibroScan VCTE/LSM, LS mean CFB (100 mg, F1B, week 52): −3.7 kPa
- FibroScan VCTE/LSM, LS mean CFB difference from PBO (100 mg, F1B, week 52): −3.1 kPa
- MRE, LS mean % CFB (100 mg, F1B, week 52): 2.4%
- MRE, LS mean % CFB difference from PBO (100 mg, F1B, week 52): −5.1%
- MRE ≥19% increase from BL, no. of patients (100 mg, F2, responder analysis): 0
- MRE ≥19% reduction from BL, % of patients (100 mg, F2, responder analysis): (22.7) %
- MRE ≥19% reduction from BL, no. of patients (100 mg, F2, responder analysis): 5
- VCTE/LSM improving ≥25%, % of patients (100 mg, F2, responder analysis): (50.0) %
- VCTE/LSM improving ≥25%, no. of patients (100 mg, F2, responder analysis): 38
- VCTE/LSM improving ≥30%, % of patients (100 mg, F2, responder analysis): (40.8) %
- VCTE/LSM improving ≥30%, no. of patients (100 mg, F2, responder analysis): 31
- VCTE/LSM worsening ≥25%, % of patients (100 mg, F2, responder analysis): (10.5) %
- VCTE/LSM worsening ≥25%, no. of patients (100 mg, F2, responder analysis): 8
- VCTE/LSM worsening ≥30%, % of patients (100 mg, F2, responder analysis): (6.6) %
- VCTE/LSM worsening ≥30%, no. of patients (100 mg, F2, responder analysis): 5
- FibroScan VCTE/LSM, LS mean CFB (100 mg, F2, week 52): −2.4 kPa
- FibroScan VCTE/LSM, LS mean CFB difference from PBO (100 mg, F2, week 52): −1.2 kPa
- MRE, LS mean % CFB (100 mg, F2, week 52): 1.1%
- MRE, LS mean % CFB difference from PBO (100 mg, F2, week 52): 0.99%
- MRE ≥19% increase from BL, % of patients (100 mg, F3, responder analysis): (8.1) %
- MRE ≥19% increase from BL, no. of patients (100 mg, F3, responder analysis): 7
- MRE ≥19% reduction from BL, % of patients (100 mg, F3, responder analysis): (31.4) %
- MRE ≥19% reduction from BL, no. of patients (100 mg, F3, responder analysis): 27
- VCTE/LSM improving ≥25%, % of patients (100 mg, F3, responder analysis): (47.9) %
- VCTE/LSM improving ≥25%, no. of patients (100 mg, F3, responder analysis): 80
- VCTE/LSM improving ≥30%, % of patients (100 mg, F3, responder analysis): (38.9) %
- VCTE/LSM improving ≥30%, no. of patients (100 mg, F3, responder analysis): 65
- VCTE/LSM worsening ≥25%, % of patients (100 mg, F3, responder analysis): (10.8) %
- VCTE/LSM worsening ≥25%, no. of patients (100 mg, F3, responder analysis): 18
- VCTE/LSM worsening ≥30%, % of patients (100 mg, F3, responder analysis): (10.2) %
- VCTE/LSM worsening ≥30%, no. of patients (100 mg, F3, responder analysis): 17
- FibroScan VCTE/LSM, LS mean CFB (100 mg, F3, week 52): −3.2 kPa
- FibroScan VCTE/LSM, LS mean CFB difference from PBO (100 mg, F3, week 52): −2.1 kPa
- MRE, LS mean % CFB (100 mg, F3, week 52): 5.2%
- MRE, LS mean % CFB difference from PBO (100 mg, F3, week 52): −4.8%
- Liver volume, LS mean % CFB (100 mg, week 16): -21.4%
- Liver volume, LS mean % CFB difference from PBO (100 mg, week 16): −21.1%
- MRI-PDFF % fat fraction, LS mean % CFB (100 mg, week 16): 42.1%
- MRI-PDFF % fat fraction, LS mean % CFB difference from PBO (100 mg, week 16): −35.7%
- Spleen volume, LS mean % CFB (100 mg, week 16): 3.6%
- Spleen volume, LS mean % CFB difference from PBO (100 mg, week 16): −5.0%
- ALT, LS mean % CFB (100 mg, week 48): −33.2%
- ALT, LS mean % CFB difference from PBO (100 mg, week 48): −26.3%
- ALT, LS mean CFB (100 mg, week 48): 24.8 U/L
- AST, LS mean % CFB (100 mg, week 48): 28.3%
- AST, LS mean % CFB difference from PBO (100 mg, week 48): −25.4%
- AST, LS mean CFB (100 mg, week 48): 15.8 U/L
- GGT, LS mean % CFB (100 mg, week 48): -31.9%
- GGT, LS mean % CFB difference from PBO (100 mg, week 48): −35.2%
- GGT, LS mean CFB (100 mg, week 48): -32.7 U/L
- Adiponectin, LS mean CFB (100 mg, week 52): 1.1 µg/mL
- Adiponectin, LS mean CFB difference from PBO (100 mg, week 52): 1.3 µg/mL
- CK-18, LS mean CFB (100 mg, week 52): -310 U/L
- CK-18, LS mean CFB difference from PBO (100 mg, week 52): −165.7 U/L
- FibroScan CAP, LS mean CFB (100 mg, week 52): −41.3 dB/m
- FibroScan CAP, LS mean CFB difference from PBO (100 mg, week 52): −26.9 dB/m
- Liver volume, LS mean % CFB (100 mg, week 52): -25.8%
- Liver volume, LS mean % CFB difference from PBO (100 mg, week 52): 24.8%
- MRI-PDFF % fat fraction, LS mean % CFB (100 mg, week 52): 46.6%
- MRI-PDFF % fat fraction, LS mean % CFB difference from PBO (100 mg, week 52): −37.9%
- Spleen volume, LS mean % CFB (100 mg, week 52): −6.1%
- Spleen volume, LS mean % CFB difference from PBO (100 mg, week 52): −9.3%
- Enhanced liver fibrosis score, LS mean CFB [3]: −0.35
- Enhanced liver fibrosis score, LS mean CFB difference from PBO [3]: −0.24
- PIIINP, LS mean % CFB [4]: -10.3%
- PIIINP, LS mean % CFB difference from PBO [4]: −9.3%
- PIIINP, LS mean CFB [4]: -2.1 ng/mL
- PIIINP, LS mean CFB difference from PBO [4]: -1.4 ng/mL
- TIMP-I, LS mean % CFB [5]: −10.1%
- TIMP-I, LS mean % CFB difference from PBO [5]: −6.5%
- TIMP-I, LS mean CFB [5]: -35.7 ng/mL
- TIMP-I, LS mean CFB difference from PBO [5]: -22.3 ng/mL
- Hyaluronic acid, LS mean % CFB [6]: 11.8%
- Hyaluronic acid, LS mean % CFB difference from PBO [6]: −13.0%
- Hyaluronic acid, LS mean CFB [6]: -2.9 µg/L
- Hyaluronic acid, LS mean CFB difference from PBO [6]: -3.5 µg/L
